Results published in patent publication US8409833B2 (Hokko Chemical Industry Co., Ltd., priority 2003, dated 2013).

System: NAD^+-independent myo-inositol 2-dehydrogenase
Experiment: NAD^+-independent myo-inositol 2-dehydrogenase activity (oxidized DCIP, absorbance at 600 nm): substrate specificity, Km, heavy metal inhibition
Details: for Km: enzyme derived from Acetobacter sp. AB10253, sugar concentration varied; for reaction of the enzyme with the sugar: sugar at a final concentration of 50 mM
Experimental: The enzyme activity of each fraction was measured by a standard method: that is, the change in absorbance at 600 nm of 1 ml of a solution containing 50 μl of the protein solution, 100 mM phosphate buffer (pH 5.0), 5 mg of myo-inositol, and 0.4 mg of 2,4-dichloroindophenol (oxidized DCIP) was calculated into a reaction rate, and an activity to oxidize 1 μmol of myo-inositol per minute was defined as one unit.
For measurement of the optimum pH, the enzyme activity was measured while changing a buffer and pH value. As the buffer, there were used 100 mM phosphate buffer (pH 3 to 8), 100 mM Tris buffer (pH 7 to 8), and 100 mM carbonate buffer (pH 8 to 11).
The substrate specificity of the target enzyme was determined by measuring the enzyme activity in a solution containing various sugars instead of myo-inositol at a final concentration of 50 mM.

| SMILES | Km | reaction of the enzyme with the sugar | also measured |
| --- | --- | --- | --- |
| OC1C(O)C(O)C(O)C(O)C1O [D-chiro-inositol] | 8.8 mM | – | – |
| [Sn+2] [Sn^2+ ion, reference compound] | – | – | enzyme activity relative to the activity in the absence of the ion (1 mM ion, 100 mM phosphate buffer (pH 5.0)): ≤ 1% |
| OC1C(O)C(O)C(O)C(O)C1O (stereo not drawn) [allo-inositol] | – | not to react | – |
| OC1C(O)C(O)C(O)C(O)C1O (stereo not drawn) [muco-inositol] | 14.5 mM | – | – |
| OC1C(O)[C@H](O)[C@H](O)C(O)[C@@H]1O (stereo partly drawn) [myo-inositol] | 20 mM | – | – |
| OC1C(O)[C@H](O)[C@H](O)C(O)[C@H]1O (stereo partly drawn) [scyllo-inositol] | – | not to react | – |
